Biological target: T1, Capsid scaffolding protein (Human cytomegalovirus (strain AD169), UniProt P16753)
T1 sequence (P16753 whole entry): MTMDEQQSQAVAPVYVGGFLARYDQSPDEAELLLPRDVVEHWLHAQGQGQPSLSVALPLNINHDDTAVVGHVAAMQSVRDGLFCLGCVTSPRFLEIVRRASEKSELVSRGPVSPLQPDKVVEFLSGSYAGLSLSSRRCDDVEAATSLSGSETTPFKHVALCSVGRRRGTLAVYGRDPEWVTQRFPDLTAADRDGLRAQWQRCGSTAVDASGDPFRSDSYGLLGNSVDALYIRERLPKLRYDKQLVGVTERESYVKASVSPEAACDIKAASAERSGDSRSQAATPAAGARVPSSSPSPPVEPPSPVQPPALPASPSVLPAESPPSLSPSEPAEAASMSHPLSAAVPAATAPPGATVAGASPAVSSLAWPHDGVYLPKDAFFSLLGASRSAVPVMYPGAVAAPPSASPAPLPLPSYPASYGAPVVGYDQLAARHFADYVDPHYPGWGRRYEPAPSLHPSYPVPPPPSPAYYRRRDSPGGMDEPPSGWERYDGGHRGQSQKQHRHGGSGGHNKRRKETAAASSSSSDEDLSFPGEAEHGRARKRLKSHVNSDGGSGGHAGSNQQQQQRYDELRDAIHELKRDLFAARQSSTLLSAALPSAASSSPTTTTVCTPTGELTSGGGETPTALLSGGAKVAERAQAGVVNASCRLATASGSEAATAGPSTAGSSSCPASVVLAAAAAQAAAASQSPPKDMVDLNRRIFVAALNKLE
Assay: HCMV antiviral assay
Method: Methods 21:293-298, 1990. […] After absorption of the lysate, the Hybriwix filters were hybridized overnight at 60° C.

Structure (SMILES): Nc1ncnc2c1ncn2CCOCP(=O)(O)O [US10071110, Compound Adefovir]
- EC50: 55 µM

Source: BindingDB's records for patent US10071110 (University of California, 2018)
